From patent US20260035389A1, “TETRAHYDROPYRIDOPYRIMIDINE PAN-KRAS INHIBITORS” (Mirati Therapeutics, Inc., priority 2020, published 2026)

Legend:
[1] = target: KRas^G13D (Homo sapiens, UniProt P01116, G13D); assay: biochemical
[2] = target: KRas^G12R (Homo sapiens, UniProt P01116, G12R); assay: KRas binding assay (TR-FRET displacement)
[3] = tested on: MKN1 cells; assay: Cisbio HTRF Advanced pERK assay; type: cell-based; conditions: 3 hour, read-out: Inhibition (HTRF IC50 nM) of KRas-mediated Phosphorylation of ERK, MKN1
Procedure: (§1) Cisbio HTRF Advanced pERK Assay Catalog #64AERPEH • Cells: MKN1, PSN1 • Procedure: • Day 1: Seed 6,000 cells/well −25 μl/well in 384-well white solid bottom plate; RPM1_10% FBS.

[4] = tested on: H727 cells; assay: Cisbio HTRF Advanced pERK assay; type: cell-based; conditions: 3 hrs, read-out: Inhibition (HTRF IC50 nM) of KRas-mediated Phosphorylation of ERK, H727
[5] = tested on: ASPC1 cells; assay: Cisbio HTRF Advanced pERK assay; type: cell-based; conditions: AsPC-1 cells, 3 hrs, read-out: Inhibition (HTRF IC50 nM) of KRas-mediated Phosphorylation of ERK, AsPC-1
[6] = target: KRas^G12V (Homo sapiens, UniProt P01116, G12V); assay: KRas binding assay (TR-FRET displacement)
[7] = tested on: PSN1 cells; assay: Cisbio HTRF Advanced pERK assay; type: cell-based; conditions: 3 hour, read-out: Inhibition (HTRF IC50 nM) of KRas-mediated Phosphorylation of ERK, PSN1
Procedure: as §1

[8] = target: KRas^Q61H (Homo sapiens, UniProt P01116, Q61H); assay: biochemical
KRas^Q61H, sequence (P01116 1-169 isoform P01116-2 Q61H): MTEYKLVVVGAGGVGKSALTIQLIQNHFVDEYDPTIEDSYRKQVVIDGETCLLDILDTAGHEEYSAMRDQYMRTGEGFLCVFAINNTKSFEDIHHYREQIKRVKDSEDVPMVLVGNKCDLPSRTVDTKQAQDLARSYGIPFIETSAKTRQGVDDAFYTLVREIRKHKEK

KRas^G12V, sequence (P01116 1-169 isoform P01116-2 G12V): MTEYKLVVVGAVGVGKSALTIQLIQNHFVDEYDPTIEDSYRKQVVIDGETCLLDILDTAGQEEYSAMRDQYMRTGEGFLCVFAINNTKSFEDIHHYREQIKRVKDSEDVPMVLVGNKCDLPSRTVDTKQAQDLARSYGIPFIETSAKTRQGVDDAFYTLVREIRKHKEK
KRas^G13D, sequence (P01116 1-169 isoform P01116-2 G13D): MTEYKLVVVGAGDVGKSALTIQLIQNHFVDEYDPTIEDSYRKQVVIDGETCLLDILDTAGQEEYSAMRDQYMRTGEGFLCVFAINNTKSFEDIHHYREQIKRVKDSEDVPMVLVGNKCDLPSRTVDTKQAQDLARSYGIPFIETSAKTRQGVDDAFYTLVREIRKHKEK
KRas^G12R, sequence (P01116 1-169 isoform P01116-2 G12R): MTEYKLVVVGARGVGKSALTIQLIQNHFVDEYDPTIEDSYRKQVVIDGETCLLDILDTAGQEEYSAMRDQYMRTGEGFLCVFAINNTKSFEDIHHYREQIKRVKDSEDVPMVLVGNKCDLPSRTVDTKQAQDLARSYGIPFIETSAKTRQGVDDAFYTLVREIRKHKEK

Row | SMILES | IC50 [3] [nM] | IC50 [4] [nM] | IC50 [5] [nM] | IC50 [6] [nM] | further results
1 | CCc1c(F)ccc2cc(O)cc(N3CCc4c(nc(OC[C@@]56CCCN5C[C@H](F)C6)nc4N4CCC[C@@](C)(O)C4)C3)c12 [Example 2, (R)-1-(7-(8-ethyl-7-fluoro-3-hydroxynaphthalen-1-yl)-2-(((2R,7aS)-2-fluorohexahydro-1H-pyrrolizin-7a-yl)methoxy)-5,6,7,8-tetrahydropyrido[3,4-d]pyrimidin-4-yl)-3-methylpiperidin-3-ol] |  |  |  |  | IC50 [1]: ≤ 2 nM
2 | CCc1c(F)ccc2cc(O)cc(N3CCc4c(nc(OC[C@@]56CCCN5C[C@H](F)C6)nc4N4CCOCC(C)(O)C4)C3)c12 (stereo partly drawn) [Example 20, 4-(7-(8-ethyl-7-fluoro-3-hydroxynaphthalen-1-yl)-2-(((2R,7aS)-2-fluorohexahydro-1H-pyrrolizin-7a-yl)methoxy)-5,6,7,8-tetrahydropyrido[3,4-d]pyrimidin-4-yl)-6-methyl-1,4-oxazepan-6-ol] |  |  |  |  | IC50 [2]: ≤ 2 nM
3 | Oc1cc(N2CCc3c(nc(OC[C@@]45CCCN4C[C@H](F)C5)nc3N3CC4CC(O)CC3C4)C2)c2c(Cl)c(F)ccc2c1 (single isomer, unassigned) [Example 76] | 468 | 1780 | 2070 |  | 
4 | CCc1c(F)ccc2cc(O)cc(N3CCc4c(nc(OC[C@@]56CCCN5C[C@H](F)C6)nc4N4CCCn5nc(C(=O)N(C)C)c(C)c5C4)C3)c12 [Example 189, 5-(7-(8-ethyl-7-fluoro-3-hydroxynaphthalen-1-yl)-2-(((2R,7aS)-2-fluorotetrahydro-1H-pyrrolizin-7a(5H)-yl)methoxy)-5,6,7,8-tetrahydropyrido[3,4-d]pyrimidin-4-yl)-N,N,3-trimethyl-5,6,7,8-tetrahydro-4H-pyrazolo[1,5-a][1,4]diazepine-2-carboxamide] |  |  |  | ≤ 2 | 
5 | CCc1c(F)ccc2cc(O)cc(N3CCc4c(nc(OC[C@@]56CCCN5C[C@H](F)C6)nc4N4CC5CC(O)CC4C5)C3)c12 (stereo partly drawn) [Example 35, 6-(7-(8-ethyl-7-fluoro-3-hydroxynaphthalen-1-yl)-2-(((2R,7aS)-2-fluorohexahydro-1H-pyrrolizin-7a-yl)methoxy)-5,6,7,8-tetrahydropyrido[3,4-d]pyrimidin-4-yl)-6-azabicyclo[3.2.1]octan-3-ol] |  |  |  | ≤ 2 | 
6 | O=C1NC(=O)C2(CCCN(c3nc(OC[C@@]45CCCN4C[C@H](F)C5)nc4c3CCN(c3cc(O)cc5ccc(F)c(Cl)c35)C4)C2)N1 (stereo partly drawn) [Example 69, 7-(7-(8-chloro-7-fluoro-3-hydroxynaphthalen-1-yl)-2-(((2R,7aS)-2-fluorohexahydro-1H-pyrrolizin-7a-yl)methoxy)-5,6,7,8-tetrahydropyrido[3,4-d]pyrimidin-4-yl)-1,3,7-triazaspiro[4.5]decane-2,4-dione] |  |  |  | ≤ 2 | 
7 | Oc1cc(N2CCc3c(nc(OC[C@@]45CCCN4C[C@H](F)C5)nc3N3CC4CC(O)CC3C4)C2)c2c(Br)c(F)ccc2c1 (single isomer, unassigned) [Example 214] | 1700 | 7430 | ≥ 10000 |  | IC50 [7]: ≥ 10000 nM
8 | CCc1c(F)ccc2cc(O)cc(N3CCc4c(nc(OC[C@@]56CCCN5C[C@H](F)C6)nc4N4CCCn5nc(C(=O)N6CCCC6)cc5C4)C3)c12 [Example 191, (5-(7-(8-ethyl-7-fluoro-3-hydroxynaphthalen-1-yl)-2-(((2R,7aS)-2-fluorotetrahydro-1H-pyrrolizin-7a(5H)-yl)methoxy)-5,6,7,8-tetrahydropyrido[3,4-d]pyrimidin-4-yl)-5,6,7,8-tetrahydro-4H-pyrazolo[1,5-a][1,4]diazepin-2-yl)(pyrrolidin-1-yl)methanone] |  |  |  | ≤ 2 | 
9 | CCc1cccc2cccc(N3CCc4c(nc(OCC56CCCN5CCC6)nc4N4CCCC(P(C)(C)=O)C4)C3)c12 (stereo not shown) [Example 112, (1-(7-(8-ethylnaphthalen-1-yl)-2-((tetrahydro-1H-pyrrolizin-7a(5H)-yl)methoxy)-5,6,7,8-tetrahydropyrido[3,4-d]pyrimidin-4-yl)piperidin-3-yl)dimethylphosphine oxide] |  |  |  |  | IC50 [8]: 647 nM
10 | Oc1cc(N2CCc3c(nc(OC[C@@]45CCCN4C[C@H](F)C5)nc3N3CC4CC(O)CC3C4)C2)c2c(Cl)c(F)ccc2c1 (single isomer, unassigned) [Example 77] | 2660 | 8300 | 9110 |  | IC50 [7]: ≥ 10000 nM
11 | CCc1c(F)ccc2cc(O)cc(N3CCc4c(nc(OCC5(CN(C)C)CC5)nc4N4CCCn5nc(C(=O)N(C)C)cc5C4)C3)c12 [Example 203, 5-(2-((1-((dimethylamino)methyl)cyclopropyl)methoxy)-7-(8-ethyl-7-fluoro-3-hydroxynaphthalen-1-yl)-5,6,7,8-tetrahydropyrido[3,4-d]pyrimidin-4-yl)-N,N-dimethyl-5,6,7,8-tetrahydro-4H-pyrazolo[1,5-a][1,4]diazepine-2-carboxamide] |  |  |  | ≤ 2 | 
12 | Oc1cc(N2CCc3c(nc(OC[C@@]45CCCN4C[C@H](F)C5)nc3N3CC4CC(O)CC3C4)C2)c2c(Br)c(F)ccc2c1 (single isomer, unassigned) [Example 213] | 148 | 1170 | 1740 |  | 
